Data as given in patent US10844032B2, “Substituted benzofuran, benzothiophene and indole Mcl-1 inhibitors” (Vanderbilt University, priority 2012, dated 2020).

The molecules below were run against recombinant Mcl-1 (residues 172-327) (Homo sapiens (Human), UniProt Q07820) (assay: Bak peptide fluorescence polarization anisotropy competition assay, Mcl-1). Settings: Table 2, Ki range; FITC-Bak peptide 10 nM, Mcl-1 14 nM; read-out: Ki for inhibition of Mcl-1.
Type: binding

Chain of recombinant Mcl-1 (residues 172-327) (Q07820 172-327): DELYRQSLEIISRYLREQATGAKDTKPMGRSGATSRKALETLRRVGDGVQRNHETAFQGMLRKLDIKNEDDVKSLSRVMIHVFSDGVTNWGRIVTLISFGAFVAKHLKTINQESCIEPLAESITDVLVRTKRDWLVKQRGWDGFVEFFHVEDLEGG

Ki | SMILES
≤ 100 nM | Cc1cc(OCCCc2c(C(=O)NS(=O)(=O)c3ccc(C(=O)O)n3C)[nH]c3cc(Cl)ccc23)cc(C)c1Cl [Example 266, 5-(N-(6-chloro-3-(3-(4-chloro-3,5-dimethylphenoxy)propyl)-1H-indole-2-carbonyl)sulfamoyl)-1-methyl-1H-pyrrole-2-carboxylic acid]
≤ 100 nM | Cc1cc(OCCCc2c(C(=O)NS(=O)(=O)c3ccccc3)[nH]c3c(-c4ccncc4C(F)(F)F)cccc23)cc(C)c1Cl [Example 104, 3-(3-(4-chloro-3,5-dimethylphenoxy)propyl)-N-(phenylsulfonyl)-7-(3-(trifluoromethyl)pyridin-4-yl)-1H-indole-2-carboxamide]

Same assay, conditions: read-out: Ki for inhibition of Mcl-1

SMILES | Ki
Cc1cc(OCCCc2c(C(=O)NS(=O)(=O)CCNC(=O)c3ccccc3)[nH]c3ccccc23)cc(C)c1Cl [Example 161, N-((2-benzamidoethyl)sulfonyl)-3-(3-(4-chloro-3,5-dimethylphenoxy)propyl)-1H-indole-2-carboxamide] | 301 to 500 nM
Cc1cc(OCCCc2c(C(=O)NS(=O)(=O)CCNC(=O)c3cc(C)n(Cc4ccccc4)c3C)[nH]c3ccccc23)cc(C)c1Cl [Example 194, N-((2-(1-benzyl-2,5-dimethyl-1H-pyrrole-3-carboxamido)ethyl)sulfonyl)-3-(3-(4-chloro-3,5-dimethylphenoxy)propyl)-1H-indole-2-carboxamide] | 101 to 299 nM
Cc1cc(OCCCc2c(C(=O)NS(=O)(=O)CCNC(=O)c3cnn(Cc4ccccc4)c3)[nH]c3ccccc23)cc(C)c1Cl [Example 184, N-((2-(1-benzyl-1H-pyrazole-4-carboxamido)ethyl)sulfonyl)-3-(3-(4-chloro-3,5-dimethylphenoxy)propyl)-1H-indole-2-carboxamide] | 1000 to 9990 nM
Cc1cc(OCCCc2c(C(=O)NS(=O)(=O)CCNC(=O)c3cncs3)[nH]c3ccccc23)cc(C)c1Cl [Example 189, N-(2-(N-(3-(3-(4-chloro-3,5-dimethylphenoxy)propyl)-1H-indole-2-carbonyl)sulfamoyl)ethyl)thiazole-5-carboxamide] | 501 to 999 nM
Cc1cc(OCCCc2c(C(=O)NS(=O)(=O)CC3CCN(C(=O)OCc4ccccc4)CC3)[nH]c3cc(Cl)ccc23)cc(C)c1Cl [Example 209, benzyl 4-((N-(6-chloro-3-(3-(4-chloro-3,5-dimethylphenoxy)propyl)-1H-indole-2-carbonyl)sulfamoyl)methyl)piperidine-1-carboxylate] | 301 to 500 nM

Continued, values first:

Ki | SMILES
101 to 299 nM | Cc1cc(OCCCc2c(C(=O)NS(=O)(=O)c3cccc(Br)c3)[nH]c3cc(Cl)ccc23)cc(C)c1Cl [Example 218, N-((3-bromophenyl)sulfonyl)-6-chloro-3-(3-(4-chloro-3,5-dimethylphenoxy)propyl)-1H-indole-2-carboxamide]
101 to 299 nM | Cc1cc(OCCCc2c(C(=O)NS(=O)(=O)CCNC(=O)c3cccn3Cc3ccccc3F)[nH]c3cc(Cl)ccc23)cc(C)c1Cl [Example 248, 6-chloro-3-(3-(4-chloro-3,5-dimethylphenoxy)propyl)-N-((2-(1-(2-fluorobenzyl)-1H-pyrrole-2-carboxamido)ethyl)sulfonyl)-1H-indole-2-carboxamide]
301 to 500 nM | CCOc1ccc(Oc2ccc(S(=O)(=O)NC(=O)c3[nH]c4cc(Cl)ccc4c3CCCOc3cc(C)c(Cl)c(C)c3)cc2)cc1 [Example 223, 6-chloro-3-(3-(4-chloro-3,5-dimethylphenoxy)propyl)-N-((4-(4-ethoxyphenoxy)phenyl)sulfonyl)-1H-indole-2-carboxamide]
101 to 299 nM | Cc1cccc(S(=O)(=O)NC(=O)c2[nH]c3cc(Cl)ccc3c2CCCOc2cc(C)c(Cl)c(C)c2)c1 [Example 217, 6-chloro-3-(3-(4-chloro-3,5-dimethylphenoxy)propyl)-N-(m-tolylsulfonyl)-1H-indole-2-carboxamide]
101 to 299 nM | COC(=O)c1ccc(S(=O)(=O)NC(=O)c2[nH]c3cc(Cl)ccc3c2CCCOc2cc(C)c(Cl)c(C)c2)o1 [Example 259]
